In patent US20080255206A1, “Rxr Agonists and Antagonists, Alone or in Combination with Ppar Ligands, in the Treatment of Metabolic and Cardiovascular Diseases” (priority 2005, published 2008):

Experiments:
[1] = biological target: T1, RXRα (Homo sapiens, UniProt P19793); assay: Retinoid binding assay, RXRα; set-up: made in house; host or cells: E. coli; conditions: [3H] 9-cis retinoic acid 20 nM; read-out: Binding Affinity IC50 RXR α
T1 sequence (P19793 1-462): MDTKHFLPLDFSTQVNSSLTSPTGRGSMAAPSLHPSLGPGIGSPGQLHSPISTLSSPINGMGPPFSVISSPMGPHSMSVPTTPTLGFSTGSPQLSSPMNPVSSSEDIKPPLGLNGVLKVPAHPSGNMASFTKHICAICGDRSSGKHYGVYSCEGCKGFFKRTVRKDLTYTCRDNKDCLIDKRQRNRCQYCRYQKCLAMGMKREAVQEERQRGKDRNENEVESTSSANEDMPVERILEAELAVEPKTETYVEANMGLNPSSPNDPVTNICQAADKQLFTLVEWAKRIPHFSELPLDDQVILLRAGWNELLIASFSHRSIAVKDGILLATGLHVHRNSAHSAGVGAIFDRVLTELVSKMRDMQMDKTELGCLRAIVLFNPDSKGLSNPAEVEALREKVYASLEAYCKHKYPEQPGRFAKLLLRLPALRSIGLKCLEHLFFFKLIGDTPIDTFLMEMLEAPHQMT
Excerpt: (§1) The DEF domains of RAR's and the full length RXR's, expressed in E.coli, are used to measure competitive retinoid binding. […] 9-cis retinoic acid (for RXR's), respectively. […] Separation of bound from free radioactivity is achieved by charcoal/dextran (RAR's) or by desalting columns (RXR's). […] Retinoid Activation Assays

[2] = biological target: T2, RXRγ (Homo sapiens, UniProt P48443); assay: Retinoid binding assay, RXRγ; set-up: made in house; host or cells: E. coli; conditions: [3H] 9-cis retinoic acid 20 nM; read-out: Binding Affinity IC50 RXR γ
T2 sequence (P48443 1-463): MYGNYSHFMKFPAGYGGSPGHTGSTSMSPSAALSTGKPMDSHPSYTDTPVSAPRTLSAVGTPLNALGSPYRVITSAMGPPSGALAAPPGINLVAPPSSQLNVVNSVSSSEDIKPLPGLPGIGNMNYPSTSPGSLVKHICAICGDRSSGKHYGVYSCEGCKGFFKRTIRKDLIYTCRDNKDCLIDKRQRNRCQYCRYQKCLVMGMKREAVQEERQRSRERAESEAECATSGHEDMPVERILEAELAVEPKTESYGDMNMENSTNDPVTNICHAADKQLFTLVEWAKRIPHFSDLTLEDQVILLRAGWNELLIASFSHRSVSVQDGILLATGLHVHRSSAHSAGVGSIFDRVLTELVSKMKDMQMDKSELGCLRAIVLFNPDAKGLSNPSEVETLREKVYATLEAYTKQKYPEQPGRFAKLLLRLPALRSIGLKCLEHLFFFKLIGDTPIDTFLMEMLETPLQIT
Excerpt: as §1

[3] = biological target: T3, RXRα Homodimer (Homo sapiens, UniProt P19793); assay: RXRα homodimer activation (transactivation) assay; format: cell-based
T3 construct: expressed in transfected cells; host or cells: mammalian cells (BHK21, CV1, etc)
T3 sequence (P19793 1-462): T1 sequence (P19793 1-462)
Excerpt: (§2) Nuclear hormone receptor (NHR) ligand dependent transcriptional transactivation assay.
This secondary in vitro functional assay to characterize hits from the primary ligand binding screens is a GAL4-LBD transactivation assay. The Gal4-LBD protein consists of an in frame fusion of the transcription factor galactose 4 DNA binding domain from S.cerevisiae with the ligand binding domain (LBD) of a particular NHR. Briefly, a plasmid construct expressing the recombinant chimeric receptor is co-transfected into mammalian cells (BHK21, CV1, etc) with a luciferase reporter plasmid containing several copies in tandem of the GAL4 binding sites (promoter recognition elements) upstream from the minimal promoter driving the luciferase gene. The transfected cells are treated with compounds for 12-24 hours, lysates are produced and assayed for luciferase activity and normalized to internal standards such as GH, growth hormone or SEAP, secreted alkaline phosphatase. Ligand binding stabilizes the LBD conformation that recruits endogenous co-factors that mediate eventually the increased transcriptional activity of the luciferase reporter gene. By comparing the activation profile of a reference ligand or a natural ligand, the EC50 values for agonistic activity of a particular ligand can be measured. The extent of activation that can be measured is indicative of a partial, respectively full agonistic activity of a ligand. […]

[4] = biological target: T4, PPARγ/RXRα Heterodimer (Homo sapiens, UniProt P19793); assay: PPARγ/RXRα heterodimer activation (transactivation) assay; format: cell-based
T4 construct: co-transfected with plasmids expressing the full length RXR heteropartner receptor; expressed in transfected cells
T4 sequence (P19793 1-462): T1 sequence (P19793 1-462)
T4 sequence (P37231 1-505 partner): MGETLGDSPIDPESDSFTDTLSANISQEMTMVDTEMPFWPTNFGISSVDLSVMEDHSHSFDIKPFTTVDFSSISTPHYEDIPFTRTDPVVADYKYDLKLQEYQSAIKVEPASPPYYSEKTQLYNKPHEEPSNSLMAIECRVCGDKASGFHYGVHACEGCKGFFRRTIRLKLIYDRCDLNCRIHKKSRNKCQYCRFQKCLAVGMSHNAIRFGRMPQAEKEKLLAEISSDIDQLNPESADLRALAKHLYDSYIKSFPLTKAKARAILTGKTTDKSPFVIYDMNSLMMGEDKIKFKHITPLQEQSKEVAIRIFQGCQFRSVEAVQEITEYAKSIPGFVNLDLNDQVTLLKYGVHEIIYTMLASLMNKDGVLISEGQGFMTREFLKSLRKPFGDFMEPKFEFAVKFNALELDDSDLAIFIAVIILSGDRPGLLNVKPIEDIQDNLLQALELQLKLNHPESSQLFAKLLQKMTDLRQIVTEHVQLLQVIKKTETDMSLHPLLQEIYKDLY
Excerpt: as §2
Heterodimer reporter assays are potentially more important selection criteria for synthetic agonistic NHR ligands as they embody a more natural situation. Basically plasmids expressing the recombinant full length NHR are co-transfected with plasmids expressing the full length RXR heteropartner receptor and a reporter plasmid containing several copies of the natural responsive elements for the respective NHR driving the luciferase reporter gene.

[5] = biological target: T1, RXRα; assay: Retinoid activation assay, RXRα (Schneider SL-3 cells, luciferase reporter); format: cell-based; conditions: read-out: Activation EC50 RXR α
Method: Full length RXR cDNA is used for transfection. As reporter system, the luciferase gene is used in a construct with three copies of a RXR response element from rat CRBP gene, (formerly RARE from betaRAR gene), fused to alcoholdehydrogenase gene promoter in the plasmid pGL2-basic. Schneider SL-3 cells from Drosophila are transiently transfected 3-4 h before the experiment by the Ca-phosphate-DNA coprecipitation method. […] At the end of the incubation, the cell supernatants are assayed for luciferase activity. Results are given as EC50 (nM), the concentration leading to half-maximal activation.

IC50 [1]: 9 nM | IC50 [2]: 19 nM | EC50 [3]: > 10000 nM | EC50 [4]: > 10000 nM | EC50 [5]: ≥ 10000 nM
Structure (SMILES): CCCCCCCOc1c(\C(C)=C/C=C/C(C)=C/C(=O)O)cc(C(C)C)cc1C(C)C [Compound 19, (2E,4E,6Z)-7-(2-Heptyloxy-3,5-diisopropyl-phenyl)-3-methyl-octa-2,4,6-trienoic acid]
